One experiment concerns the target hCB1 (Homo sapiens, UniProt P21554). The experiment is described as follows: In vitro binding assay using hCB1-CHO membranes, [3H]-CP-55,940 displacement (Protocol II). On the set-up: expressed in transfected cells; host or cells: CHO (hCB1-CHO, generated in-house). The procedure: II. Protocol for In Vitro Assay Using hCB1-CHO Membranes
The reaction was set up in a total volume of 200 μl in PEI (Poly(ethyleneimine)) (0.2%) precoated Millipore GFB (Glass Fibre-B) filter plates. 1 mM stocks of test compounds were prepared in DMSO and tested at a final concentration of 300 nM. The non-specific binding was determined by 0.5 μM CP-55, 940. […] The assay mixture (with or without the test compound) was incubated at 37° C. for 1 hour. The reaction was stopped by rapid filtration under vacuum and the radioactivity on the filters was measured by liquid scintillation counting.

In experiment [1] the target is T1, CB1 (Rattus norvegicus, UniProt P20272). The experiment is described as follows: Rat CB1 receptor binding using brain membrane, [3H]SR141716A displacement (Protocol I). On the set-up: CB1 receptor present in a rat brain membrane preparation; from tissue; host or cells: rat brain membrane. The conditions noted are these: rat brain membrane, [3H]SR141716A displacement.

In the next experiment the target is hCB2 (Homo sapiens, UniProt P34972). In words: In vitro binding assay using hCB2-CHO membranes, [3H]-CP-55,940 displacement (Protocol IV). On the set-up: expressed in transfected cells; host or cells: CHO (hCB2-CHO, generated in-house). The conditions noted are these: hCB2-CHO membranes, [3H]-CP-55,940 displacement. A digest of the protocol: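 Displacement of [3H]-CP-55,940 (0.75 nM) from membranes of CHO cells expressing human CB2 (25-50 μg) was measured in Tris-BSA buffer pH 7.4 with 5 mM MgCl2, 1 mM EDTA, 0.1% BSA, 1 h at 30 °C. Test compounds were at 300 nM final; nonspecific binding defined with 0.5 μM CP-55,940. Values are % displacement of specific binding.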

Experiment [2] addresses T1, CB1. The experiment is described as follows: GTPγS binding assay, CB1 functional assay in rat cerebellar membrane (Protocol VIII). The experiment is classed as biochemical. The arrangement: 10 μg rat cerebellum membrane; from tissue; host or cells: rat cerebellum membrane, prepared in-house. The conditions noted are these: for Per Se % Stimulation: GTPγS binding over basal, rat cerebellar membrane; for % Inhibition of WIN-55212-2 induced stimulation: GTPγS binding. A digest of the protocol:
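Rat cerebellar membranes (10 μg) incubated 1 h at 30 °C with 0.2 nM [35S]GTPγS, 50 μM GDP, and compound at 1 μM or 300 nM, alone or with 1 μM WIN 55,212-2, in Tris/MgCl2/EGTA/NaCl pH 7.4. Filter-bound radioactivity counted; percent stimulation calculated against basal specific binding (nonspecific defined by 10 μM GTPγS).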
For orientation: GTPγS is a poorly hydrolysed GTP analogue; its binding reports G protein activation.

Where [3] appears, read: tested at 1 uM in presence of 1 μM WIN 55,212-2.

T1 sequence (P20272 whole entry): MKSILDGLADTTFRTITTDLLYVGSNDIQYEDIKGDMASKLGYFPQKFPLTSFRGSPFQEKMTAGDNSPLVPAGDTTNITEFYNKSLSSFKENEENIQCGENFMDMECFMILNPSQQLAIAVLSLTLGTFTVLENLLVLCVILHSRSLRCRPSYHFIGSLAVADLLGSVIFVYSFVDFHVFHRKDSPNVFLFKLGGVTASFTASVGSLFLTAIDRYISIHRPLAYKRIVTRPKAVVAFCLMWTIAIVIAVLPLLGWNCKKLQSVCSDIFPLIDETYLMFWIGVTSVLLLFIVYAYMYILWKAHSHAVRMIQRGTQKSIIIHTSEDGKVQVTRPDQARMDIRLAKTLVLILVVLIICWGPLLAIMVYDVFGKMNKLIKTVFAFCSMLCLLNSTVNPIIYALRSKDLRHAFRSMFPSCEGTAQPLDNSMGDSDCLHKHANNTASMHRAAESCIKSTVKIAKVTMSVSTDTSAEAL
hCB1, sequence (P21554 whole entry): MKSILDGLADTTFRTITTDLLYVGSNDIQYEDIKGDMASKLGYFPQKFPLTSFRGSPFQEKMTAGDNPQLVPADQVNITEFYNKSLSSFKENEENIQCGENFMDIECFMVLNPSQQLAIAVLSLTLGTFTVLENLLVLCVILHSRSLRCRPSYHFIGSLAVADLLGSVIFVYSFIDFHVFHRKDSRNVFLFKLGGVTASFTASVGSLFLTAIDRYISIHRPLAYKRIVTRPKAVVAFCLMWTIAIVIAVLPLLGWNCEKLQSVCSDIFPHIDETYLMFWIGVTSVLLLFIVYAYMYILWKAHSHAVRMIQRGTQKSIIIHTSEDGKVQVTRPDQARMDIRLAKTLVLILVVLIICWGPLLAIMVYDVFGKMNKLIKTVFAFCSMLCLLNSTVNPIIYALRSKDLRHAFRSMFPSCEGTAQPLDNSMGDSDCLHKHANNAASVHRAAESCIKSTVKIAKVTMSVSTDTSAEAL
hCB2, sequence (P34972 whole entry): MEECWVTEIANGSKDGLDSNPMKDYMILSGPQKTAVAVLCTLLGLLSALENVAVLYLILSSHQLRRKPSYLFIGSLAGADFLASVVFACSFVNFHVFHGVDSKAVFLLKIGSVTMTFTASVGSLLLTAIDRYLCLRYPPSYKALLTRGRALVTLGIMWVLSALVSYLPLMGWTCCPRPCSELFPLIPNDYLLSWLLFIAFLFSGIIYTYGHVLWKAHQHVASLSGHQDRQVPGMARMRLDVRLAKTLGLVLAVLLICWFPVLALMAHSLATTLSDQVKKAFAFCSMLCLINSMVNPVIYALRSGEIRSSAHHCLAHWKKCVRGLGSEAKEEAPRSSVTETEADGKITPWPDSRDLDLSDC

Take `O=C(c1n[nH]c2c1C1CC3CC(CC2C3)C1)N1CCCCC1` [Example 188, 6,7-Diazatetracyclo[7.3.1.1^3,11.0^4,8]tetradeca-4(8)-5-dien-5-yl-piperidinomethanone]: at hCB1, the “% Displacement Protocol II” value is 12.5%. Further, on CB1 [1], the “% Displacement Protocol I” value is listed as 19.5%. The “% Displacement Protocol IV” value on hCB2 came to 36.01%.

In the case of `O=C(NN1CCCCC1)c1nn(-c2ccccc2Cl)c2c1C1CC3CC(C1)CC2C3` [Example 184, N(7)-piperidino-5-(2′-chlorophenyl)-5,6-diazatetracyclo[7.3.1.1^3,11.0^4,8]tetradeca-4(8)-6-diene-7-carboxamide], the “% Displacement Protocol II” value at hCB1 turned out to be 3.24%. Besides, the “% Displacement Protocol I” value at CB1 [1] was found to be 41%. Moreover, the “Per Se % Stimulation” value at CB1 [2] (tested at 1 uM) is 9.5%. The “% Inhibition of WIN-55212-2 induced stimulation” value (“% Inhibition” below) on CB1 [2] (setting [3]) was 75.9%. On hCB2, the “% Displacement Protocol IV” value is listed as 8.76%.

With `C[C@H](NC(=O)c1nn(-c2ccc(Cl)cc2Cl)c2c1C1CCC2C1)c1ccccc1` (stereo partly drawn) [Example 252, N(3)-[S-(1-phenylethyl)]-1-(2,4-dichlorophenyl)-4,5,6,7-tetrahydro-1H-4,7-methano-indazole-3-carboxamide], at hCB1, the “% Displacement Protocol II” value was 74.52%. Further, the “% Displacement Protocol I” value on CB1 [1] is given as 99.8%. Further, the “Per Se % Stimulation” value on CB1 [2] (tested at 300 nM) was found to be 48.2%. Moreover, the “% Inhibition” value at CB1 [2] (tested at 300 nM in presence of 1 μM WIN 55,212-2) is given as 58.8%.

For the compound `O=C(NCc1ccc(F)cc1)c1nn(-c2ccc(Cl)cc2)c2c1C1CC3CC(C1)CC2C3` [Example 113, N(7)-(4-Fluorobenzyl)-5-(4-chlorophenyl)-5,6-diazatetracyclo[7.3.1.1^3,11.0^4,8]tetradeca-4(8)-6-diene-7-carboxamide], the “% Displacement Protocol II” value at hCB1 turned out to be 27.70%. The “% Displacement Protocol I” value at CB1 [1] stood at 55.9%. In addition, the “% Displacement Protocol IV” value on hCB2 came out at 17.02%.

`O=C(Nc1ccccc1)c1nn(-c2ccccc2)c2c1C1CC3CC(C1)CC2C3` [Example 168, N(7)-Phenyl-5-phenyl-5,6-diazatetracyclo[7.3.1.1^3,11.0^4,8]tetradeca-4(8)-6-diene-7-carboxamide]: at hCB1, the “% Displacement Protocol II” value turned out to be 11.47%. Moreover, the “% Displacement Protocol I” value at CB1 [1] amounted to 37%.

Take `O=C(NN1CCCCC1)c1nn(-c2ccccc2)c2c1C1CC3CC(C1)CC2C3` [Example 169, N(7)-piperidino-5-phenyl-5,6-diazatetracyclo[7.3.1.1^3,11.0^4,8]tetradeca-4(8)-6-diene-7-carboxamide]: at hCB1, the “% Displacement Protocol II” value is reported as 29.65%. For the same compound, the “% Displacement Protocol I” value at CB1 [1] came to 19%.

Regarding `O=C(c1nn(-c2ccc(Cl)cc2)c2c1C1CCC2C1)N1CCCCC1` (stereo not drawn) [Example 210, 1-(4-Chlorophenyl)-4,5,6,7-tetrahydro-1H-4,7-methano-indazol-3-yl piperidino methanone], the “% Displacement Protocol II” value on hCB1 was 11.58%. Also, the “% Displacement Protocol I” value at CB1 [1] turned out to be 12.6%. Also, the “% Displacement Protocol IV” value on hCB2 is on record as 17.69%.

In the case of `O=C(c1nn(-c2ccccc2)c2c1C1CC3CC(C1)CC2C3)N1CCCCC1` [Example 171, N(7)-phenyl-6,7-diazatetracyclo[7.3.1.1^3,11.0^4,8]tetradeca-4(8)-5-dien-5-yl-piperidino methanone], at hCB1, the “% Displacement Protocol II” value was determined as 19.37%. On CB1 [1], the “% Displacement Protocol I” value stood at 0%. In addition, the “% Displacement Protocol IV” value at hCB2 is 0.56%.

With `O=C(NCCc1ccccc1)c1nn(-c2ccc(Cl)cc2)c2c1C1CC3CC(C1)CC2C3` [Example 136, N(7)-(2-Phenylethyl)-5-(4-chlorophenyl)-5,6-diazatetracyclo[7.3.1.1^3,11.0^4,8]tetradeca-4(8)-6-diene-7-carboxamide], at hCB1, the “% Displacement Protocol II” value was determined as 1.01%. In addition, on CB1 [1], the “% Displacement Protocol I” value was 31.3%. In addition, the “% Displacement Protocol IV” value on hCB2 was 15.44%.

For `O=C(NCc1ccccc1)c1nn(-c2ccccc2Cl)c2c1C1CC3CC(C1)CC2C3` [Example 182, N(7)-Benzyl-5-(2-chlorophenyl)-5,6-diazatetracyclo[7.3.1.1^3,11.0^4,8]tetradeca-4(8)-6-diene-7-carboxamide], the “% Displacement Protocol II” value at hCB1 is reported as 19.35%. Further, the “% Displacement Protocol I” value on CB1 [1] was 39.9%. The “% Displacement Protocol IV” value at hCB2 came to 12.78%.

Take `CN(NC(=O)c1nn(-c2ccc(Cl)cc2Cl)c2c1C1CCC2c2ccccc21)c1ccc(Cl)cc1Cl` (stereo not drawn) [Example 505, N(12)-{N′-[(2,4-Dichlorophenyl)-N′-methyl]amino}-10-(2,4-dichlorophenyl)-10,11-diazatetracyclo[6.5.2.0^2,7.0^9,13]pentadeca-2,4,6,9(13),11-pentaene-12-carboxamide]: the “% Displacement Protocol II” value on hCB1 is on record as 77.51%. Moreover, on CB1 [1], the “% Displacement Protocol I” value is listed as 90.6%. In addition, the “Per Se % Stimulation” value on CB1 [2] (tested at 1 uM) is reported as 15.6%. In addition, on CB1 [2] (setting [3]), the “% Inhibition” value came to 94.4%.

With `O=C(NN(c1ccccc1)c1ccccc1)c1nn(-c2ccc(Cl)cc2)c2c1C1CCC2C1` (stereo not drawn) [Example 236], the “% Displacement Protocol II” value at hCB1 is listed as 55.25%. Also, the “% Displacement Protocol I” value on CB1 [1] stood at 75.5%. The “Per Se % Stimulation” value at CB1 [2] (tested at 1 uM) is 8.0%. The “% Inhibition” value at CB1 [2] (setting [3]) is on record as 83.0%.

For `O=C(NCc1ccc(C(F)(F)F)cc1)c1nn(-c2ccc(Cl)cc2)c2c1C1CCC2C1` (stereo not drawn) [Example 227, N(3)-(4-Trifluoromethylbenzyl)-1-(4-chlorophenyl)-4,5,6,7-tetrahydro-H-4,7-methano-indazole-3-carboxamide], on hCB1, the “% Displacement Protocol II” value is listed as 3.51%. Besides, the “% Displacement Protocol I” value on CB1 [1] was determined as 25.3%.

Consider `O=C(NCc1ccc(Cl)cc1)c1nn(-c2ccc(Cl)cc2)c2c1C1CC3CC(C1)CC2C3` [Example 112, N(7)-(4*Chlorobenzyl)-5-(4-chlorophenyl)-5,6-diazatetracyclo[7.3.1.1^3,11.0^4,8]tetradeca-4(8)-6-diene-7-carboxamide], for which the “% Displacement Protocol II” value on hCB1 was found to be 25.76%. In addition, at CB1 [1], the “% Displacement Protocol I” value is 59.9%.

For `O=C(NNc1ccc(Cl)c(Cl)c1)c1nn(-c2ccc(Cl)cc2)c2c1C1CCC2C1` (stereo not drawn) [Example 231, N(3)-[(3,4-Dichlorophenyl)amino]-1-(4-chlorophenyl)-4,5,6,7-tetrahydro-H-4,7-methano-indazole-3-carboxamide], at hCB1, the “% Displacement Protocol II” value turned out to be 30.79%. For the same compound, the “% Displacement Protocol I” value on CB1 [1] came to 31.9%.

Turning to `O=C(NNc1ccc(Cl)cc1)c1nn(-c2ccc(Cl)cc2)c2c1C1CC3CC(C1)CC2C3` [Example 125], at hCB1, the “% Displacement Protocol II” value came to 22.07%. In addition, the “% Displacement Protocol I” value on CB1 [1] is 52.7%. The “% Displacement Protocol IV” value on hCB2 is 5.04%.

Turning to `Cn1nc2c(c1C(=O)NN1CCCCC1)C1CC3CC(CC2C3)C1` [Example 189a, N(7)-Piperidino-6-methyl-5,6-diazatetracyclo[7.3.1.1^3,11.0^4,8]tetradeca-4(8)-6-diene-7-carboxamide], the “% Displacement Protocol II” value on hCB1 stood at 21.2%. Further, the “% Displacement Protocol I” value on CB1 [1] was found to be 7%. In addition, the “% Displacement Protocol IV” value on hCB2 was determined as 0.81%.

`O=C(NN1CCCCC1)c1n[nH]c2c1C1CC3CC(CC2C3)C1` [Example 187, N(7)-Piperidino-5,6-diazatetracyclo[7.3.1.1^3,11.0^4,8]tetradeca-4(8)-6-diene-7-carboxamide]: the “% Displacement Protocol II” value on hCB1 stood at 15.66%. Moreover, the “% Displacement Protocol I” value on CB1 [1] was 6.0%. On hCB2, the “% Displacement Protocol IV” value is reported as 0.7%.

As to `Cn1nc(C(=O)NN2CCCCC2)c2c1C1CC3CC(CC2C3)C1` [Example 189b, N(7)-Piperidino-5-methyl-5,6-diazatetracyclo[7.3.1.1^3,11.0^4,8]tetradeca-4(8)-6-diene-7-carboxamide], on hCB1, the “% Displacement Protocol II” value was 24.03%. In addition, the “% Displacement Protocol I” value on CB1 [1] stood at 3%. Besides, the “% Displacement Protocol IV” value at hCB2 worked out at 2.56%.

For `O=C(NN1CCCCC1)c1nn(-c2ccccc2Br)c2c1C1CC3CC(C1)CC2C3` [Example 101, N(7)-Piperidino-5-(2-bromophenyl)-5,6-diazatetracyclo[7.3.1.1^3,110^4,8]tetradeca-4(8),6-diene-7-carboxamide], on hCB1, the “% Displacement Protocol II” value was found to be 5.75%. On CB1 [1], the “% Displacement Protocol I” value is reported as 28.8%. Moreover, the “% Displacement Protocol IV” value at hCB2 is given as 0%.

Source of the values: patent US7923465B2, “Cannabinoid receptor ligands, pharmaceutical compositions containing them, and process for their preparation” (priority 2005, dated 2011).
